Three molecules from ChEMBL document CHEMBL5715954, “Silencing c-Myc translation as a therapeutic strategy through targeting PI3Kδ and CK1ε in hematological malignancies” (Blood, 2017) can be followed below.

Holding throughout (set-up): scale not given: the % may be the effect or the level left
Test [1] addresses Calcium/calmodulin-dependent protein kinase type II subunit beta (Homo sapiens) (UniProt Q13554). The test can be described thus: Inhibition of human CAMK2b assessed as enzyme activity at 1 uM using KKALRRQETVDAL as substrate preincubated for 20 mins followed by [gamma-33P]-ATP addition and measured after 120 mins by radiometric Hot-SpotSM Kinase assay relative to control.
Test [2] deals with Calcium/calmodulin-dependent protein kinase type II subunit delta (Homo sapiens) (UniProt Q13557). The test can be described thus: Inhibition of human CAMK2d assessed as enzyme activity at 1 uM using KKLNRTLSFAEPG as substrate preincubated for 20 mins followed by [gamma-33P]-ATP addition and measured after 120 mins by radiometric Hot-SpotSM Kinase assay relative to control.
Test [3] concerns the target CDK6/cyclin D1 (Homo sapiens) (UniProt P24385+Q00534). The test can be described thus: Inhibition of human CDK6/cyclin D1 assessed as enzyme activity at 1 uM using RB Protein as substrate preincubated for 20 mins followed by [gamma-33P]-ATP addition and measured after 120 mins by radiometric Hot-SpotSM Kinase assay relative to control. The format is protein-complex assay.

In test [4] the target is Serine/threonine-protein kinase pim-1 (Homo sapiens) (UniProt P11309). Put plainly: Inhibition of human PIM1 assessed as enzyme activity at 1 uM using RSRHSSYPAGT as substrate preincubated for 20 mins followed by [gamma-33P]-ATP addition and measured after 120 mins by radiometric Hot-SpotSM Kinase assay relative to control.
For test [5], the target named is T1, cAMP-dependent protein kinase catalytic subunit PRKX (Homo sapiens) (UniProt P51817).
T1 sequence (whole entry): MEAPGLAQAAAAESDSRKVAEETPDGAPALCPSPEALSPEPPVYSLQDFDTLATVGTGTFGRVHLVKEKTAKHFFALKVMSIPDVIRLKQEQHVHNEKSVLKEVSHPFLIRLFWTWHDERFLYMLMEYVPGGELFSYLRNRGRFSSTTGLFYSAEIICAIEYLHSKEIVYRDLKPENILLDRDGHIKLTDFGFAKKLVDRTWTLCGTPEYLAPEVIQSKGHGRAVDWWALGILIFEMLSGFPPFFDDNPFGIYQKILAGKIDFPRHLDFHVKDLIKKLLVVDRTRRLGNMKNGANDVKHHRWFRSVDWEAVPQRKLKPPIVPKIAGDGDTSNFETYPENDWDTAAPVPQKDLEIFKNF
Put plainly: Inhibition of human PRKX assessed as enzyme activity at 1 uM using LRRASLG as substrate preincubated for 20 mins followed by [gamma-33P]-ATP addition and measured after 120 mins by radiometric Hot-SpotSM Kinase assay relative to control.

The target of test [6] is Macrophage-stimulating protein receptor (Homo sapiens) (UniProt Q04912). The test can be described thus: Inhibition of human RON assessed as enzyme activity at 1 uM using KKSRGDYMTMQIG as substrate preincubated for 20 mins followed by [gamma-33P]-ATP addition and measured after 120 mins by radiometric Hot-SpotSM Kinase assay relative to control.
Test [7] concerns the target Dual specificity testis-specific protein kinase 1 (Homo sapiens) (UniProt Q15569). The test can be described thus: Inhibition of human TESK1 assessed as enzyme activity at 1 uM using cofilin 2 as substrate preincubated for 20 mins followed by [gamma-33P]-ATP addition and measured after 120 mins by radiometric Hot-SpotSM Kinase assay relative to control.
For test [8], the target named is T2, Testis-specific serine/threonine-protein kinase 2 (Homo sapiens) (UniProt Q96PF2).
T2 sequence (whole entry): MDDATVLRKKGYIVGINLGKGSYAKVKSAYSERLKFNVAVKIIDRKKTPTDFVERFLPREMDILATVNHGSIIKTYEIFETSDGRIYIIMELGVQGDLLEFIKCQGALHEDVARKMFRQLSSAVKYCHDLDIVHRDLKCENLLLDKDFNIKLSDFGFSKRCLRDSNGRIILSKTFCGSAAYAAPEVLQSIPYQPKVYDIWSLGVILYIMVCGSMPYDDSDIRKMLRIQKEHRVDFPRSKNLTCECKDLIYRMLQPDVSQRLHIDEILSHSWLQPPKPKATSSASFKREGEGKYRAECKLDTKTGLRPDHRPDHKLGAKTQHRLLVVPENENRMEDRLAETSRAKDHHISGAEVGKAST
Put plainly: Inhibition of human TSSK2 assessed as enzyme activity at 1 uM using KKKVSRSGLYRSPSMPENLNRPR as substrate preincubated for 20 mins followed by [gamma-33P]-ATP addition and measured after 120 mins by radiometric Hot-SpotSM Kinase assay relative to control.

Test [9] addresses Leukocyte tyrosine kinase receptor (Homo sapiens) (UniProt P29376). Put plainly: Inhibition of human TYK1/LTK assessed as enzyme activity at 1 uM using EAIYAAPFAKKK as substrate preincubated for 20 mins followed by [gamma-33P]-ATP addition and measured after 120 mins by radiometric Hot-SpotSM Kinase assay relative to control.

Sequence of Serine/threonine-protein kinase pim-1 (Homo sapiens) (P11309 whole entry, looked up): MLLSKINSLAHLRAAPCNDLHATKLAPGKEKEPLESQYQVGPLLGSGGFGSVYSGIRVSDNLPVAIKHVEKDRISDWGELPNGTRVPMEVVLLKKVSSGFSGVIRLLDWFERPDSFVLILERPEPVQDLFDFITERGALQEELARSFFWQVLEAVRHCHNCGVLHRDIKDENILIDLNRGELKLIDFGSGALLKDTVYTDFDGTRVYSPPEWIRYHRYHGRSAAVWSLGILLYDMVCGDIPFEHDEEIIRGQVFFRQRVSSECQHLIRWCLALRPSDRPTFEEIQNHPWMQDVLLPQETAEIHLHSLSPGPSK
Sequence of Macrophage-stimulating protein receptor (Homo sapiens) (Q04912 25-304 limits assumed): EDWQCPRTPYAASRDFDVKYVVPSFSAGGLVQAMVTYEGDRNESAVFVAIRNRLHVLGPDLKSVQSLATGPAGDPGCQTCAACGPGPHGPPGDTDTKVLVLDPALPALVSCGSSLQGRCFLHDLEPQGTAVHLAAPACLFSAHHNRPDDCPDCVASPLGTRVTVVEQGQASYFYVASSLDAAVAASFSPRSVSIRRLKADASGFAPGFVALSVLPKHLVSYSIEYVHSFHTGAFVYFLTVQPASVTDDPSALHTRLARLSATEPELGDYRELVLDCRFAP
Sequence of Macrophage-stimulating protein receptor (Homo sapiens) (Q04912 310-1400 limits assumed): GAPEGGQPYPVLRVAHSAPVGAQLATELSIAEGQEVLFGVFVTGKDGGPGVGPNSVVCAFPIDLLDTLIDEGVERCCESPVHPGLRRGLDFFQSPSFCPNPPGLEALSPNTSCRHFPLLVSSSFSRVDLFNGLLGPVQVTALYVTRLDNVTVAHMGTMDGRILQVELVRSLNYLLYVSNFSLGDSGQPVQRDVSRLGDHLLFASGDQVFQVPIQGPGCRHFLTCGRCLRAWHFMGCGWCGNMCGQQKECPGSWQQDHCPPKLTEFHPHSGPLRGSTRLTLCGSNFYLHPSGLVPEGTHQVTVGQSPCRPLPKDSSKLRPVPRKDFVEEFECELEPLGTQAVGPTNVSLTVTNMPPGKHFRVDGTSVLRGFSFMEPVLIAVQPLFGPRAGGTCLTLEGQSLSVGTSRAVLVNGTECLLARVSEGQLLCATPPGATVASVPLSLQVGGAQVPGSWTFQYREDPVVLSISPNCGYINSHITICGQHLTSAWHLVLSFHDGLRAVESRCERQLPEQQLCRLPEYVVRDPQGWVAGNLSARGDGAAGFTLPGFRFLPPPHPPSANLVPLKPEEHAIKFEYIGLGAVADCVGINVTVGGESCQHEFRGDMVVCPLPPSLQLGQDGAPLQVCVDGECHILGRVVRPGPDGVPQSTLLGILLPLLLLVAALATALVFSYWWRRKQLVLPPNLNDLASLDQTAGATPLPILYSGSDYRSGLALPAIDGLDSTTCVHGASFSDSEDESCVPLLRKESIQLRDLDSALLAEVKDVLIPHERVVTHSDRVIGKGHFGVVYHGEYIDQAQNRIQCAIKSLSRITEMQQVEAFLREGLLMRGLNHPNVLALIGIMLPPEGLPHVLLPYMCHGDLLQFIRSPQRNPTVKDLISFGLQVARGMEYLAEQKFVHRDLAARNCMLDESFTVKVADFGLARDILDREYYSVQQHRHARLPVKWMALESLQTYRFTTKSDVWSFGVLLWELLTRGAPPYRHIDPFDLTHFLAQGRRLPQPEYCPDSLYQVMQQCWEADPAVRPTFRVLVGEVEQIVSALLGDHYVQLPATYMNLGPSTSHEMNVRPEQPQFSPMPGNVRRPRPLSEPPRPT
Sequence of Dual specificity testis-specific protein kinase 1 (Homo sapiens) (Q15569 whole entry, looked up): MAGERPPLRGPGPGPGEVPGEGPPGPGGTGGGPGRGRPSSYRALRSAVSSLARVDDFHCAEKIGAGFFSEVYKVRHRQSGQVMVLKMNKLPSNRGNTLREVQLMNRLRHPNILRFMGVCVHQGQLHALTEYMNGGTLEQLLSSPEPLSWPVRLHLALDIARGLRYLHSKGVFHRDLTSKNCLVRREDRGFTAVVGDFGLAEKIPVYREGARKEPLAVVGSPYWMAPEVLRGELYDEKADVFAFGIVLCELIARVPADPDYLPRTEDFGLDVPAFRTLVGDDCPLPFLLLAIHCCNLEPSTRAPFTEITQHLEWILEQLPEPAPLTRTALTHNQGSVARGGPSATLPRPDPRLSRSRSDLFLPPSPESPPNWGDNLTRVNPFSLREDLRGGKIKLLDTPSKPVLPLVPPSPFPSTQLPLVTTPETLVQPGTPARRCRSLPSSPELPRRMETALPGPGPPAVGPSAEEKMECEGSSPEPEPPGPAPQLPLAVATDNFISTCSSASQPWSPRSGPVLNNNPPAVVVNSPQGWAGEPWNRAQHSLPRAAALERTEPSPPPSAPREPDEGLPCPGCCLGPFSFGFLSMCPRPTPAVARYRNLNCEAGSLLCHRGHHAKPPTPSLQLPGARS
Sequence of Calcium/calmodulin-dependent protein kinase type II subunit delta (Homo sapiens) (Q13557 whole entry): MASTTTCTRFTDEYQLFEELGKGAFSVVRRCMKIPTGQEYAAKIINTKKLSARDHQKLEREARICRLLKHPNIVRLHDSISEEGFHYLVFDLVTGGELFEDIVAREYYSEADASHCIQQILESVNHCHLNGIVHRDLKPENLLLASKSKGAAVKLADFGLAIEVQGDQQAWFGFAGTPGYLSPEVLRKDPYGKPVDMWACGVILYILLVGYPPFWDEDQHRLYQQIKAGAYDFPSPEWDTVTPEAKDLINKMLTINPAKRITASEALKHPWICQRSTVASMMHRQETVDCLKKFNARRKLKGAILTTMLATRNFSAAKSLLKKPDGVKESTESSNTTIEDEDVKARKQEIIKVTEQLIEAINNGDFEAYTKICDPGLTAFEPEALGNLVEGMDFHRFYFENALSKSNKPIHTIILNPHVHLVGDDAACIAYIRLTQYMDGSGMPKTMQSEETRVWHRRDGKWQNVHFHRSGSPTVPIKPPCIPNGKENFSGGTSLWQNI
Sequence of Leukocyte tyrosine kinase receptor (Homo sapiens) (P29376 whole entry): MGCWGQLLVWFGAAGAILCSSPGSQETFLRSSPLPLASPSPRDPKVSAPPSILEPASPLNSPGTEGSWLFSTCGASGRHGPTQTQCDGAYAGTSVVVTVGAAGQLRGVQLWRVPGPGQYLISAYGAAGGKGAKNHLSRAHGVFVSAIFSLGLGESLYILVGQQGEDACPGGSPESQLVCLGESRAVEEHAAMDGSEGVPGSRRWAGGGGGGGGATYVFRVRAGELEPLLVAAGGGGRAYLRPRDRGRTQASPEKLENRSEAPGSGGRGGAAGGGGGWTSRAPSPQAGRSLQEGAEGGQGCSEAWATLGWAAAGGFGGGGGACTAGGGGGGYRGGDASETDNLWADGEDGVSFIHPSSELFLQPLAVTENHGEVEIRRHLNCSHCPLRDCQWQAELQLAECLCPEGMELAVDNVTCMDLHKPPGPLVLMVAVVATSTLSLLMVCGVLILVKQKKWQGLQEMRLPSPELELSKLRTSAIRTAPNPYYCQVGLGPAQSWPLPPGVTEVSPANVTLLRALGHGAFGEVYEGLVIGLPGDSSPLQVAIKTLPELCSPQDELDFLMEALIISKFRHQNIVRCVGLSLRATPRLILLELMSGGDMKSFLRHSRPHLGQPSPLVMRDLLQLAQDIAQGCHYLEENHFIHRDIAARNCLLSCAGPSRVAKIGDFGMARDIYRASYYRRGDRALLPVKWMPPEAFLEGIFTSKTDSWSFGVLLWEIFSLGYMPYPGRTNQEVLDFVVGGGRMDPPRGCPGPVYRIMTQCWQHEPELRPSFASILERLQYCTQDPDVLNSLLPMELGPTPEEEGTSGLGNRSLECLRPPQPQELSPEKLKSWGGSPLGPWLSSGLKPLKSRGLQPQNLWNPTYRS
Sequence of Calcium/calmodulin-dependent protein kinase type II subunit beta (Homo sapiens) (Q13554 whole entry): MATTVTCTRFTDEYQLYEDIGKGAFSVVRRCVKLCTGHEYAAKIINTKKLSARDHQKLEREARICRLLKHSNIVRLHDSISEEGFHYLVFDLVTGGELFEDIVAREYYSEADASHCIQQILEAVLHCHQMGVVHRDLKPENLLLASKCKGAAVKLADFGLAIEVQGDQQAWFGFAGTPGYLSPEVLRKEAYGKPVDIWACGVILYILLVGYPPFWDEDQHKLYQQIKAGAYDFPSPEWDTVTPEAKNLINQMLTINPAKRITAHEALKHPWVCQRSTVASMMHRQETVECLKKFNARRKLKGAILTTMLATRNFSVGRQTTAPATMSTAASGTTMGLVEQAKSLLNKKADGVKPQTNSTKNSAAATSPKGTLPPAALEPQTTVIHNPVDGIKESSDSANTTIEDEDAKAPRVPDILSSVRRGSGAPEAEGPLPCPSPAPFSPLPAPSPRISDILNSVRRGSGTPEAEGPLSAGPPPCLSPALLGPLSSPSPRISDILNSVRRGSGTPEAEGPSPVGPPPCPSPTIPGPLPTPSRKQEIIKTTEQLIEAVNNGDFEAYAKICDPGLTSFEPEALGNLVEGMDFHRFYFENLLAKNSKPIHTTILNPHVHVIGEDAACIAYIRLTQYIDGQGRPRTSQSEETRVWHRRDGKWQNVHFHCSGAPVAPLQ

For `C[C@H](Nc1ncnc2nc[nH]c12)c1cc2cccc(Cl)c2c(=O)n1-c1ccccc1`, the Activity in test [1] turned out to be 95.8%; in test [2], 104%; in test [3] it was 91.3%; in test [4], 99.6%; in [5], 98.6%; in [6], 103%. Besides, the Activity in [7] stood at 102%; in test [8], 98%; in [9], 97.4%.

With `CC[C@H](Nc1ncnc2[nH]cnc12)c1nc2cccc(F)c2c(=O)n1-c1ccccc1`, the Activity in test [1] was 96.2%; in [2], 107%; in test [3], 94.6%; in test [4], 99.6%; in [5] it was 97.6%; in test [6], 108%. Also, the Activity turned out to be 98.7% in [7], 104% in test [8] and 94.8% in test [9].

`CC(C)Oc1ccc(-c2nn([C@@H](C)c3oc4ccc(F)cc4c(=O)c3-c3cccc(F)c3)c3ncnc(N)c23)cc1F` [UMBRALISIB]: the Activity in [1] is 92.3%; in test [2], 103%; in test [3], 89.2%; in [4], 98.2%; in [5], 90.8%; in test [6], 104%. The figures for the Activity in test [7], in test [8] and in test [9] were 98%, 100% and 92.5%, respectively.
